Peptide text beside a SMILES is read from it.
Key:
Assay type in all cases: in vivo
adult female mice = assay: Compensatory Ovarian Hypertrophy (COH) after unilateral ovariectomy (Table I); details: for COH (± SE): sacrificed day 5, control 45.5 ± 5.3
Method: A. Compensatory Ovarian Hypertrophy (COH) is an effect in standard laboratory (mammalian) animals for assessing antigonadotrophic activity by determining the increase in weight of the remaining gonad after unilateral gonadectomy. Procedures for COH measurement in female rats are described in Ramirez, V.D., et al., Endocrinology 95:475 (1974). According to these known procedures threonine-serine-lysine, prepared in Example 1, is administered intraperitoneally to adult female mice on the same day as a unilateral ovariectomy is performed. On day 5, both experimental and control animals are sacrificed and mean ovarian weights are obtained.

GnRH-induced rise in FSH = assay: Inhibition of GnRH-induced rise in FSH in the male rat (Table III); details: for Mean concentration of plasma FSH (± SE): GnRH-treated male rat
Method: C. The antifertility effects of threonine-serine-lysine on the male rat are measured by their ability to inhibit GnRH-or gonadotropin releasing hormone-induced rise in FSH when threonine-serine-lysine is administered intravenously. In this test, both control and tripeptide-treated animals received GnRH in a phosphate buffered saline solution, followed by the administration of the tripeptide in the same buffer.

Female Mice = assay: Compensatory ovarian hypertrophy in unilaterally ovariectomized mice (Table II); details: 5 days after treatment, control 29.7 ± 8.4
Method: (§1) B. The effect of threonine-serine-lysine on serum concentrations of FSH in the […] is measured 24 hr after intraperitoneal injection of threonine-serine-lysine to unilaterally ovariectomized mice. On day 5 after injection, the animals were sacrificed and ovarian weights recorded There are then determined compensatory ovarian hypertrophy (5 days after treatment) as well as the serum FSH (24 hr after treatment).

Serum FSH = Serum FSH in unilaterally ovariectomized mice (Table II); details: 24 hr after treatment, control 296.8 ± 375
Method: as §1

C[C@@H](O)[C@H](N)C(=O)N[C@@H](CO)C(=O)N[C@@H](CCCCN)C(=O)O [threonine-serine-lysine] (H-Thr-Ser-Lys-OH)
COH (± SE) (adult female mice; dose 186.1 ng intraperitoneally on day of unilateral ovariectomy): 34.6 ± 6.8% | COH (± SE) (adult female mice; dose 372.2 ng intraperitoneally on day of unilateral ovariectomy): 11.1 ± 15.1% | Compensatory ovarian hypertrophy, result in words (adult female mice; intraperitoneal, Table I doses): reduced in a dose-dependent manner | Mean concentration of plasma FSH (± SE) (GnRH-induced rise in FSH; dose 1.48 ng intravenously, 0 min, control 362.5 ± 20.7): 302.2 ± 26.2 ng/mL | Mean concentration of plasma FSH (± SE) (GnRH-induced rise in FSH; dose 1.48 ng intravenously, 15 min, control 1753.4 ± 450.6): 338.4 ± 38.8 ng/mL | Mean concentration of plasma FSH (± SE) (GnRH-induced rise in FSH; dose 1.48 ng intravenously, 30 min, control 1701.6 ± 720.6): 592.5 ± 217.6 ng/mL | Mean concentration of plasma FSH (± SE) (GnRH-induced rise in FSH; dose 1.48 ng intravenously, 60 min, control 247.8 ± 14.0): 586.5 ± 301.3 ng/mL | Mean concentration of plasma FSH (± SE) (GnRH-induced rise in FSH; dose 14.8 ng intravenously, 0 min, control 362.5 ± 20.7): 45.6 ± 52.3 ng/mL | Mean concentration of plasma FSH (± SE) (GnRH-induced rise in FSH; dose 14.8 ng intravenously, 15 min, control 1753.4 ± 450.6): 402.9 ± 117.7 ng/mL | Mean concentration of plasma FSH (± SE) (GnRH-induced rise in FSH; dose 14.8 ng intravenously, 30 min, control 1701.6 ± 720.6): 472.7 ± 76.9 ng/mL | Mean concentration of plasma FSH (± SE) (GnRH-induced rise in FSH; dose 14.8 ng intravenously, 60 min, control 247.8 ± 14.0): 684.5 ± 142.0 ng/mL | Mean concentration of plasma FSH (± SE) (GnRH-induced rise in FSH; dose 148 ng intravenously, 0 min, control 362.5 ± 20.7): 43.9 ± 85.6 ng/mL | Mean concentration of plasma FSH (± SE) (GnRH-induced rise in FSH; dose 148 ng intravenously, 15 min, control 1753.4 ± 450.6): 646.1 ± 198.0 ng/mL | Mean concentration of plasma FSH (± SE) (GnRH-induced rise in FSH; dose 148 ng intravenously, 30 min, control 1701.6 ± 720.6): 1407.8 ± 499.6 ng/mL | Mean concentration of plasma FSH (± SE) (GnRH-induced rise in FSH; dose 148 ng intravenously, 60 min, control 247.8 ± 14.0): 1279.6 ± 180.8 ng/mL | GnRH-induced rise in FSH, result in words (GnRH-induced rise in FSH; intravenous, male rat, Table III doses): FSH suppression | COH (± SE) (Female Mice; dose 35.1 ng intraperitoneal): 12.6 ± 10.9% | COH (± SE) (Female Mice; dose 70.3 ng intraperitoneal): 21.9 ± 8.0% | COH (± SE) (Female Mice; dose 175.7 ng intraperitoneal): 12.9 ± 5.0% | COH (± SE) (Female Mice; dose 351.7 ng intraperitoneal): 21.1 ± 7.8% | Serum FSH (± SE) (Serum FSH; dose 35.1 ng intraperitoneal): 254.4 ± 88.7 ng/mL | Serum FSH (± SE) (Serum FSH; dose 70.3 ng intraperitoneal): 377.0 ± 56.9 ng/mL | Serum FSH (± SE) (Serum FSH; dose 175.7 ng intraperitoneal): 165.0 ± 22.5 ng/mL | Serum FSH (± SE) (Serum FSH; dose 351.7 ng intraperitoneal): 179.0 ± 60.9 ng/mL
